Measurements taken from ChEMBL document CHEMBL5385944, “Hydrazyl hydroxycoumarins as new potential conquerors towards Pseudomonas aeruginosa” (Bioorg Med Chem Lett, 2024).
≈ marks a conversion by molar mass, not a printed value. Calls of active or inactive are those of the source. The rule behind the calls is not given here.

How the values were obtained:
Klebsiella pneumoniae = experiment: Antibacterial activity against Klebsiella pneumoniae assessed as reduction in bacterial growth by CLSI protocol based method; format: functional
Escherichia coli = experiment: Antibacterial activity against Escherichia coli ATCC 25922 assessed as reduction in bacterial growth by CLSI protocol based method; format: functional
Staphylococcus aureus [1] = experiment: Antibacterial activity against Staphylococcus aureus ATCC 29213 assessed as reduction in bacterial growth by CLSI protocol based method; format: functional
NCM460 [2] = experiment: Cytotoxicity against human NCM460 cells assessed as reduction in cell viability at 25 ug/ml measured after 24 hrs by CCK-8 method relative to control; format: toxicity, cell-based; conditions: ncm460, 24 h, at 25 µg/mL
Cell membrane [3] = experiment: Disruption of inner membrane integrity in Pseudomonas aeruginosa ATCC 27853 assessed as increase in red fluorescence intensity at 8 times MIC measured after 10 to 40 mins by propidium iodide staining based analysis; format: subcellular; conditions: time 10-40 min
Cell membrane [4] = experiment: Disruption of cell membrane integrity in Pseudomonas aeruginosa ATCC 27853 assessed as increase in protein leakage by Bradford assay; format: subcellular
Staphylococcus aureus [5] = experiment: Antibacterial activity against Staphylococcus aureus ATCC 25923 assessed as reduction in bacterial growth by CLSI protocol based method; format: functional
NCM460 [6] = experiment: Cytotoxicity against human NCM460 cells assessed as effect on cell surface damage at 25 ug/ml measured after 24 hrs by microscope based analysis; format: toxicity; conditions: ncm460, 24 h, dose 25 µg/ml
Pseudomonas aeruginosa [7] = experiment: Induction of drug resistance in Pseudomonas aeruginosa ATCC 27853 measured within 17 passages; format: functional
Erythrocyte = experiment: Hemolytic activity against human RBC assessed as effect on cell morphology at 32 times MIC measured after 8 hrs by fluorescence microscopic analysis; format: toxicity, cell-based
Staphylococcus aureus [8] = experiment: Antibacterial activity against methicillin resistant Staphylococcus aureus 43300 assessed as reduction in bacterial growth by CLSI protocol based method; format: functional
Staphylococcus aureus [9] = experiment: Antibacterial activity against methicillin resistant Staphylococcus aureus assessed as reduction in bacterial growth by CLSI protocol based method; format: functional
Cell membrane [10] = experiment: Disruption of outer membrane integrity in Pseudomonas aeruginosa ATCC 27853 assessed as increase in fluorescence intensity measured after 8 hrs; format: subcellular
Cell membrane [11] = experiment: Disruption of inner membrane integrity in Pseudomonas aeruginosa ATCC 27853 assessed as increase in fluorescence intensity measured after 8 hrs; format: subcellular
Pseudomonas aeruginosa [12] = experiment: Antibacterial activity against Pseudomonas aeruginosa ATCC 10104 assessed as reduction in bacterial growth by CLSI protocol based method; format: functional
Pseudomonas aeruginosa [13] = experiment: Antibacterial activity against Pseudomonas aeruginosa assessed as reduction in bacterial growth by CLSI protocol based method; format: functional
Pseudomonas aeruginosa [14] = experiment: Antibacterial activity against Pseudomonas aeruginosa ATCC 90027 assessed as reduction in bacterial growth by CLSI protocol based method; format: functional
[15] = Hemolytic activity in human RBC assessed as hemolysis at 256 times MIC measured after 8 hrs relative to control; format: toxicity, cell-based, Erythrocyte; conditions: red blood cells (erythrocytes), read-out: Activity
Cell membrane [16] = experiment: Disruption of outer membrane integrity in Pseudomonas aeruginosa ATCC 27853 assessed as increase in fluorescence intensity at 4 to 8 times MIC; format: subcellular; conditions: time <= 80.0 min, TDE = time-dependent effect
Calf thymus DNA = experiment: Binding affinity to calf thymus DNA at upto 18 micromol/ml by fluorescence spectroscopic method; format: nucleic-acid assay; conditions: Bos taurus; dose <= 18.0 µmol/ml
Pseudomonas aeruginosa [17] = experiment: Antibacterial activity against Pseudomonas aeruginosa ATCC 27853 assessed as reduction in bacterial growth by CLSI protocol based method; format: functional
Enterococcus faecalis = experiment: Antibacterial activity against Enterococcus faecalis assessed as reduction in bacterial growth by CLSI protocol based method; format: functional
Acinetobacter baumannii = experiment: Antibacterial activity against Acinetobacter baumannii assessed as reduction in bacterial growth by CLSI protocol based method; format: functional
Cell membrane [18] = experiment: Disruption of inner membrane integrity in Pseudomonas aeruginosa ATCC 27853 assessed as increase in fluorescence intensity at 4 to 8 times MIC; format: subcellular; conditions: time <= 12.0 min, TDE = time-dependent effect

## O=C(N/N=C/c1c(O)ccc2ccc(=O)oc12)c1ccncc1
Klebsiella pneumoniae
  MIC: 2 µg/mL (≈ 6.47 µM)
Escherichia coli
  MIC: 8 µg/mL (≈ 25.9 µM)
Staphylococcus aureus [1]
  MIC: 8 µg/mL (≈ 25.9 µM)
NCM460 [2]
  Activity: > 80%
Cell membrane [3]
  Activity: Active
Cell membrane [4]
  Activity: Dose-Dependent Effect
Staphylococcus aureus [5]
  MIC: 16 µg/mL (≈ 51.7 µM)
NCM460 [6]
  Activity: Non-Toxic
Pseudomonas aeruginosa [7]
  Activity: Active
Erythrocyte
  Activity: Non-Toxic
Staphylococcus aureus [8]
  MIC: 1 µg/mL (≈ 3.23 µM)
Staphylococcus aureus [9]
  MIC: 4 µg/mL (≈ 12.9 µM)
Cell membrane [10]
  Activity: Dose-Dependent Effect
Cell membrane [11]
  Activity: Dose-Dependent Effect
Pseudomonas aeruginosa [12]
  MIC: 16 µg/mL (≈ 51.7 µM)
Pseudomonas aeruginosa [13]
  MIC: 8 µg/mL (≈ 25.9 µM)
Pseudomonas aeruginosa [14]
  MIC: 32 µg/mL (≈ 103 µM)
[15]
  hemolysis at 8 h, 256 times MIC: < 4%
Cell membrane [16]
  Activity: Tde
Calf thymus DNA
  Activity: Active
Pseudomonas aeruginosa [17]
  MIC: 0.5 µg/mL (≈ 1.62 µM)
Enterococcus faecalis
  MIC: 8 µg/mL (≈ 25.9 µM)
Acinetobacter baumannii
  MIC: 1 µg/mL (≈ 3.23 µM)
Cell membrane [18]
  Activity: Tde
